Reference: PubChem BioAssay AID330 (DTP/NCI, 2004)
Values joined by “and” are separate entries in the source; they are usually repeats but may differ in a detail not shown here. Equal entries are not always repeated. Toxic doses and inconclusive results are not listed. Rule for the calls: active = survival T/C of 150% or more; inactive = T/C below 125% in these data.

System: P388 leukemia ip, CD2F1 mice, survival T/C
Assay: NCI In Vivo Anticancer Drug Screen. Data for tumor model P388 Leukemia (intraperitoneal) in CD2F1 (CDF1) mice
Conditions: endpoint: median survival time, higher = longer survival
How it was run: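 Mice carrying the transplanted tumor received test compound or vehicle. Survival was recorded in each group, and the value is the treated-group measurement divided by that of the vehicle-treated control group.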

[1] = dose: 50.0 mg/kg/injection, schedule: Q01DX009 (ip), vehicle: saline
[2] = dose: 100.0 mg/kg/injection, schedule: Q01DX009 (ip), vehicle: saline
[3] = dose: 200.0 mg/kg/injection, schedule: Q01DX009 (ip), vehicle: saline
[4] = dose: 100.0 mg/kg/injection, schedule: Q01DX001 (ip), vehicle: saline
[5] = dose: 200.0 mg/kg/injection, schedule: Q01DX001 (ip), vehicle: saline
[6] = dose: 400.0 mg/kg/injection, schedule: Q01DX001 (ip), vehicle: saline
[7] = dose: 50.0 mg/kg/injection, schedule: Q01DX009 (ip), vehicle: saline with Tween-80
[8] = dose: 100.0 mg/kg/injection, schedule: Q01DX009 (ip), vehicle: saline with Tween-80
[9] = dose: 200.0 mg/kg/injection, schedule: Q01DX009 (ip), vehicle: saline with Tween-80
[10] = dose: 50.0 mg/kg/injection, schedule: Q01DX005 (ip), vehicle: Klucel (hydroxypropylcellulose) (HPC)
[11] = dose: 100.0 mg/kg/injection, schedule: Q01DX005 (ip), vehicle: Klucel (hydroxypropylcellulose) (HPC)
[12] = dose: 200.0 mg/kg/injection, schedule: Q01DX005 (ip), vehicle: Klucel (hydroxypropylcellulose) (HPC)
[13] = dose: 50.0 mg/kg/injection, schedule: Q01DX005 (ip), vehicle: saline
[14] = dose: 100.0 mg/kg/injection, schedule: Q01DX005 (ip), vehicle: saline
[15] = dose: 200.0 mg/kg/injection, schedule: Q01DX005 (ip), vehicle: saline
[16] = dose: 60.0 mg/kg/injection, schedule: Q01DX005 (ip), vehicle: saline with Tween-80
[17] = dose: 120.0 mg/kg/injection, schedule: Q01DX005 (ip), vehicle: saline with Tween-80

Measured: T/C

Cc1[nH]n(-c2ccc(Cl)cc2)c(=O)c1N=Nc1cccc(C(F)(F)F)c1
inactive: [1] 88 % of control | [2] 91 % of control | [3] 93 % of control

COC(=O)c1c(C(=O)Nc2ccccc2)c(-c2ccccc2)n(NC(N)=O)c1C
inactive: dose: 50.0 mg/kg/injection, schedule: Q01DX005 (ip), vehicle: saline with Tween-80 112 % of control | dose: 100.0 mg/kg/injection, schedule: Q01DX005 (ip), vehicle: saline with Tween-80 107 % of control | dose: 200.0 mg/kg/injection, schedule: Q01DX005 (ip), vehicle: saline with Tween-80 104 % of control

COc1ccc(CS(=O)(=O)c2cnc(N/N=C/c3ccc([N+](=O)[O-])o3)nc2N)c(OC)c1
inactive: [4] 94 % of control | [5] 94 % of control | [6] 92 % of control

CC(=O)NC(C(=O)O)C(C)SCc1ccccc1 (stereo not drawn)
inactive: [7] 100 % of control | [8] 91 % of control | [9] 97 % of control

O=S(=O)(O)C(O)c1cccnc1 (stereo not drawn)
inactive: dose: 100.0 mg/kg/injection, schedule: Q01DX009 (ip), vehicle: saline sonified 100 % of control | dose: 200.0 mg/kg/injection, schedule: Q01DX009 (ip), vehicle: saline sonified 100 % of control | dose: 400.0 mg/kg/injection, schedule: Q01DX009 (ip), vehicle: saline sonified 100 % of control

O=C1C2=C(Nc3cc(Cl)ccc3N2)OC1c1ccccc1Cl (stereo not drawn)
inactive: dose: 60.0 mg/kg/injection, schedule: Q01DX005 (ip), vehicle: Klucel (hydroxypropylcellulose) (HPC) 95 % of control | dose: 120.0 mg/kg/injection, schedule: Q01DX005 (ip), vehicle: Klucel (hydroxypropylcellulose) (HPC) 94 % of control | dose: 240.0 mg/kg/injection, schedule: Q01DX005 (ip), vehicle: Klucel (hydroxypropylcellulose) (HPC) 104 % of control

COc1cccc2c1C(=O)C1=C(C2=O)c2c(O)cc(CO)cc2C(O)C1O (stereo not drawn)
inactive: dose: 6.25 mg/kg/injection, schedule: Q01DX005 (ip), vehicle: saline + Tween-80 + alcohol 113 % of control | dose: 12.5 mg/kg/injection, schedule: Q01DX005 (ip), vehicle: saline + Tween-80 + alcohol 113 % of control | dose: 25.0 mg/kg/injection, schedule: Q01DX005 (ip), vehicle: saline + Tween-80 + alcohol 120 % of control

O=C1N(c2ccccc2)N=C2CCCCCCCCCCC12O (stereo not drawn)
inactive: [10] 93 % of control | [11] 97 % of control | [12] 94 % of control

C1CC[N-]CC1.C1CC[N-]CC1.[Cl][Pt+2]([Cl])([Cl])[Cl]
inactive: dose: 264.0 mg/kg/injection, schedule: Q01DX009 (ip), vehicle: saline with Tween-80 86 % of control

CCOP(=O)(O)SP(=O)(O)OCC
inactive: dose: 25.0 mg/kg/injection, schedule: Q01DX001 (ip), vehicle: saline 100 % of control | dose: 50.0 mg/kg/injection, schedule: Q01DX001 (ip), vehicle: saline 102 % of control | [4] 102 % of control and 100 % of control | [5] 101 % of control | [6] 101 % of control

NC(=O)[C@H]1C[C@H](O)CN1C(=O)c1cnc2ccccc2c1
inactive: dose: 60.0 mg/kg/injection, schedule: Q01DX005 (ip), vehicle: saline 112 % of control | dose: 120.0 mg/kg/injection, schedule: Q01DX005 (ip), vehicle: saline 98 % of control | dose: 240.0 mg/kg/injection, schedule: Q01DX005 (ip), vehicle: saline 102 % of control

C1CCC2CC3NC3CC2C1 (stereo not drawn)
inactive: [1] 101 % of control | [2] 105 % of control | [3] 101 % of control

CN(C)[C@@H]1C(=O)C(C(=O)NCNCCCC(=O)O)=C(O)[C@@]2(O)C(=O)C3=C(O)c4c(O)cccc4[C@@](C)(O)[C@H]3C[C@@H]12
inactive: dose: 100.0 mg/kg/injection, schedule: Q04DX003 (ip), vehicle: saline with Tween-80 104 % of control | dose: 200.0 mg/kg/injection, schedule: Q04DX003 (ip), vehicle: saline with Tween-80 100 % of control | dose: 400.0 mg/kg/injection, schedule: Q04DX003 (ip), vehicle: saline with Tween-80 95 % of control

Nc1nc2nc(-c3ccccc3)nc(N)c2nc1C(=O)NN1CCCCC1
inactive: dose: 37.5 mg/kg/injection, schedule: Q01DX009 (ip), vehicle: saline with Tween-80 100 % of control | dose: 75.0 mg/kg/injection, schedule: Q01DX009 (ip), vehicle: saline with Tween-80 87 % of control | dose: 150.0 mg/kg/injection, schedule: Q01DX009 (ip), vehicle: saline with Tween-80 100 % of control

Nc1nc(=O)n(C2CC(O)C(CO)O2)cc1Cl (stereo not drawn)
inactive: dose: 25.0 mg/kg/injection, schedule: Q01DX005 (ip), vehicle: saline 98 % of control | [13] 105 % of control | [14] 100 % of control | [15] 110 % of control | dose: 400.0 mg/kg/injection, schedule: Q01DX005 (ip), vehicle: saline 107 % of control

O=[N+]([O-])c1ccc([O-])c([I+]c2ccccc2)c1
inactive: dose: 12.5 mg/kg/injection, schedule: Q01DX009 (ip), vehicle: Klucel (hydroxypropylcellulose) (HPC) 94 % of control | dose: 25.0 mg/kg/injection, schedule: Q01DX009 (ip), vehicle: Klucel (hydroxypropylcellulose) (HPC) 96 % of control | dose: 50.0 mg/kg/injection, schedule: Q01DX009 (ip), vehicle: Klucel (hydroxypropylcellulose) (HPC) 89 % of control and 94 % of control

CC1(C)CC(=O)C2=C(C1)OC1=C(C(=O)CC(C)(C)C1)C2c1cccc([N+](=O)[O-])c1
inactive: dose: 25.0 mg/kg/injection, schedule: Q01DX009 (ip), vehicle: saline with Tween-80 104 % of control and 95 % of control | [7] 100 % of control and 93 % of control | [8] 93 % of control and 94 % of control | [9] 93 % of control and 95 % of control

Cc1ccc2occ(-c3nnc(NC(=O)c4ccccc4)s3)c(=O)c2c1
inactive: [16] 93 % of control | [17] 86 % of control

O=C(C=C(C(F)(F)F)C(F)(F)F)c1ccc([N+](=O)[O-])cc1
inactive: dose: 3.13 mg/kg/injection, schedule: Q04DX003 (ip), vehicle: other 100 % of control | dose: 6.25 mg/kg/injection, schedule: Q04DX003 (ip), vehicle: other 109 % of control | dose: 12.5 mg/kg/injection, schedule: Q04DX003 (ip), vehicle: other 118 % of control

COc1cccc(OC)c1OCCN
inactive: [1] 111 % of control | [2] 99 % of control

COc1cc2c(cc1OC)OC(C)(C)C=C2
inactive: dose: 6.87 mg/kg/injection, schedule: Q01DX009 (ip), vehicle: saline with Tween-80 106 % of control | dose: 13.75 mg/kg/injection, schedule: Q01DX009 (ip), vehicle: saline with Tween-80 98 % of control | dose: 27.5 mg/kg/injection, schedule: Q01DX009 (ip), vehicle: saline with Tween-80 108 % of control | dose: 55.0 mg/kg/injection, schedule: Q01DX009 (ip), vehicle: saline with Tween-80 102 % of control

CC(N)C(=O)NC(CC(N)=O)C(=O)O (stereo not drawn)
inactive: [13] 105 % of control | [1] 101 % of control | [14] 110 % of control | [2] 94 % of control | [15] 94 % of control | [3] 93 % of control

CCOC(=O)c1cnc(SC)n(-c2ccc(Cl)cc2)c1=O
inactive: [10] 100 % of control | [11] 100 % of control | [12] 108 % of control

Cc1onc(-c2c(F)cccc2Cl)c1-c1ncc(-c2ccc(Cl)cc2)o1
inactive: [16] 98 % of control | [17] 94 % of control | dose: 240.0 mg/kg/injection, schedule: Q01DX005 (ip), vehicle: saline with Tween-80 99 % of control

Ic1sc(I)c(I)c1I
inactive: dose: 6.25 mg/kg/injection, schedule: Q01DX001 (ip), vehicle: saline with Tween-80 100 % of control | dose: 12.5 mg/kg/injection, schedule: Q01DX001 (ip), vehicle: saline with Tween-80 100 % of control | dose: 25.0 mg/kg/injection, schedule: Q01DX001 (ip), vehicle: saline with Tween-80 105 % of control

Cc1cc(Cl)ccc1NC(=O)/C(Cl)=C1/Sc2ccccc2NC1=O
inactive: dose: 100.0 mg/kg/injection, schedule: Q01DX001 (ip), vehicle: saline with Tween-80 105 % of control | dose: 200.0 mg/kg/injection, schedule: Q01DX001 (ip), vehicle: saline with Tween-80 97 % of control | dose: 400.0 mg/kg/injection, schedule: Q01DX001 (ip), vehicle: saline with Tween-80 97 % of control
